According to the supplement of paper PMC8671470:

Tests used:
[1] = system: myeloid leukemia patient primary cells Pat.8; experiment: cell viability (% survival relative to DMSO control); higher = less cytotoxic; details: 72 h
Outline: (§1)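 Thawed mononuclear cells from AML or CML patients were purified on Ficoll and cultured for 72 h in RPMI 1640 with 10% FBS, at 10,000 cells/well, on 384-well plates carrying 70 pre-printed compounds at 1–10,000 nM in five tenfold steps, in duplicate. Viability came from CellTiter-Glo, normalised against DMSO and against 10 μM proteasome inhibitor. Any area under the curve given was derived from log-logistic curve fits in the drc and PharmacoGx R packages, and these fits had four parameters.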

[2] = system: myeloid leukemia patient primary cells Pat.3; experiment: as above; details: 72 h
Outline: as §1

Compound | cell viability ([1]; 1 nM) [%] | cell viability ([1]; 10 nM) [%] | cell viability ([1]; 100 nM) [%] | cell viability ([1]; 1000 nM) [%] | cell viability ([1]; 10000 nM) [%] | cell viability ([2]; 1 nM) [%] | cell viability ([2]; 10 nM) [%] | cell viability ([2]; 100 nM) [%] | cell viability ([2]; 1000 nM) [%] | cell viability ([2]; 10000 nM) [%]
Sc1ncnc2nc[nH]c12 [6-mercaptopurine] | 80.3 | > 100 | 86.2 | 75.1 | 73 | 94.8 | 97.6 | 44.2 | 35.1 | 16.3
Cc1noc2c1-c1ccccc1C(c1ccc(Cl)cc1)=N[C@H]2CC(N)=O [CPI-0610] | 93.5 | 78.8 | 96.1 | 70 | 82.7 | > 100 | 79.3 | 68.4 | 22.7 | 15.6
Nc1ccn([C@@H]2O[C@H](CO)[C@@H](O)[C@@H]2O)c(=O)n1 [Cytarabine] | 90.3 | 91.5 | 96.1 | 89.1 | 22.4 | > 100 | 39.5 | 46.5 | 11.6 | 5
CCN(CC)CCN(Cc1ccc(-c2ccc(C(F)(F)F)cc2)cc1)C(=O)Cn1c(SCc2ccc(F)cc2)nc(=O)c2c1CCC2 [Darapladib] | 62.6 | 85.8 | 77.8 | 86.2 | 1.84 | 81.4 | 90.8 | 70.5 | 54.4 | < 0
CC12CCC(O)CC1CCC1C2CCC2(C)C(C3=CC(=O)OC3)CCC12O (stereo not given) [Digitoxigenin] | 91.6 | 89 | 78.4 | 7.34 | 2.31 | > 100 | 90 | 16.6 | 0.964 | 1.87
C[C@H]1O[C@@H](O[C@H]2[C@@H](O)C[C@H](O[C@H]3[C@@H](O)C[C@H](O[C@H]4CC[C@@]5(C)[C@H](CC[C@@H]6[C@@H]5C[C@@H](O)[C@]5(C)[C@@H](C7=CC(=O)OC7)CC[C@]65O)C4)O[C@@H]3C)O[C@@H]2C)C[C@H](O)[C@@H]1O [Digoxin] | 84.6 | 96.1 | 67.2 | 6.59 | 5.15 | 94.1 | 81.3 | 11.5 | 2.91 | 1.13
Clc1ccc(COC(Cn2ccnc2)c2ccc(Cl)cc2Cl)cc1 (stereo not given) [Econazole] | 93.3 | 86.9 | 81 | > 100 | 85.3 | 74.2 | 89.5 | 93 | 70.1 | 1.03
C[C@]12O[C@H](C[C@]1(O)CO)n1c3ccccc3c3c4c(c5c6ccccc6n2c5c31)CNC4=O [Lestaurtinib] | 87.6 | 75.8 | 61.9 | 54.6 | 0.632 | 90.1 | 53 | 69 | 16 | 8.21
CC(Cc1ccc(O)c(O)c1)C(C)Cc1ccc(O)c(O)c1 (stereo not given) [Masoprocol] | 97.6 | 84.9 | 95.6 | 69.7 | 6.74 | 90.1 | 91.5 | 80.4 | 35.8 | 5.51
COc1c(C)c2c(c(O)c1C/C=C(\C)CCC(=O)O)C(=O)OC2 [Mycophenolic acid] | 69.4 | 92.3 | 75.5 | 91.8 | 43.8 | 65.5 | 81.3 | 99.4 | 56.5 | 47.4
CCOC(=O)N1c2ccc(C(F)(F)F)cc2[C@@H](N(Cc2cc(C(F)(F)F)cc(C(F)(F)F)c2)C(=O)OC)C[C@H]1CC [Torcetrapib] | 92.3 | 84.8 | 96.1 | 93.3 | 65.7 | 97 | 62.9 | 95.2 | 88.7 | 22.4
